Experimental data published in PubChem BioAssay (NCI).
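All cell lines were grown in 96-well plates and treated with compound for 48 hours. GI50: concentration for 50% inhibition of growth. At the TGI there is no net growth.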

Key:
Assay in all cases: NCI tumour cell line growth inhibition, 48 h
HCT-116 colon = tested on: HCT-116 colon
IGROV1 ovarian = tested on: IGROV1 ovarian
M14 melanoma = tested on: M14 melanoma
NCI-H522 lung = tested on: NCI-H522 lung
RPMI-8226 leukemia = tested on: RPMI-8226 leukemia
SF-268 CNS = tested on: SF-268 CNS
SF-295 CNS = tested on: SF-295 CNS
SW-620 colon = tested on: SW-620 colon
TK-10 renal = tested on: TK-10 renal
UACC-257 melanoma = tested on: UACC-257 melanoma

Row | Compound | GI50 (HCT-116 colon) [µM] | TGI (HCT-116 colon) [µM] | GI50 (IGROV1 ovarian) [µM] | TGI (IGROV1 ovarian) [µM] | GI50 (M14 melanoma) [µM] | TGI (M14 melanoma) [µM] | GI50 (NCI-H522 lung) [µM] | TGI (NCI-H522 lung) [µM] | GI50 (RPMI-8226 leukemia) [µM] | TGI (RPMI-8226 leukemia) [µM] | GI50 (SF-268 CNS) [µM] | TGI (SF-268 CNS) [µM] | GI50 (SF-295 CNS) [µM] | TGI (SF-295 CNS) [µM] | GI50 (SW-620 colon) [µM] | TGI (SW-620 colon) [µM] | GI50 (TK-10 renal) [µM] | TGI (TK-10 renal) [µM] | GI50 (UACC-257 melanoma) [µM] | TGI (UACC-257 melanoma) [µM]
1 | OC1CCC(Oc2cccc3cnc(Nc4ccc5nc[nH]c5c4)nc23)CC1 (stereo not given) | 0.191 | 12 | 0.287 | 16.6 | 0.333 | 3.11 | 1.13 | 5.3 | 0.219 | 0.659 | 0.413 | 12.8 | 0.429 | 12 | 0.407 | 16.5 | 0.296 | 11.4 | 1.2 | 8.92
2 | OCCCNCc1ccccn1 |  | > 100 |  | > 100 |  | > 100 |  | > 100 |  | > 100 |  | > 100 |  | > 100 |  | > 100 |  | > 100 |  | > 100
3 | CCOC(=O)C(=O)Nc1c(C)cccc1CC |  | > 100 |  | > 100 |  | > 100 |  | > 100 |  | > 100 |  | > 100 |  | > 100 |  | > 100 |  | > 100 |  | > 100
4 | CN(C)CCNc1cccc2sc3ccc(O)cc3c(=O)c12 | 2.12 | 9.68 | 3.13 | 12.5 | 1.85 | 4.33 | 1.77 | 5.66 | 1.84 | 4.98 | 3.18 | 14.6 | 6.53 | 22.3 | 1.16 | 3.44 | 5.58 | 17.5 | 1.7 | 3.21
5 | N#CC1C(N)=NNC1c1ccc(-c2ccc(-c3nc4ccccc4o3)cc2)o1 (stereo not given) | 5.91 | > 100 | 69.4 | > 100 | 63.7 | > 100 | 53.4 | > 100 | 28.6 | > 100 | 20 | 51.7 | 66.4 | > 100 | 74.9 | > 100 | 25.5 | 74.7 | 23.1 | > 100
6 | O=c1oc2c3ccc4ccccc4c3n(Cc3nc4ccccc4[nH]3)c2c2ccccc12 |  | > 100 |  | > 100 |  | > 100 |  | > 100 |  | > 100 |  | > 100 |  | > 100 |  | > 100 |  | > 100 |  | > 90.6
7 | CCN(CC)CC(C)Nc1ccc(C)c2sc3ccccc3c(=O)c12 (stereo not given) | 3.07 | 12.3 | 3.9 | 17.1 | 1.62 | 3.2 | 10.9 | 28.7 | 2.32 | 6.81 | 6.24 | 18.4 | 2.66 | 8.56 | 3.33 | 13.7 | 4.83 | 17.6 | 2.07 | 4.82
